According to ChEMBL document CHEMBL1795324, “New class of acetylcholinesterase inhibitors from the stem bark of Knema laurina and their structural insights” (Bioorg Med Chem Lett, 2011):

molecular target: Acetylcholinesterase (Electrophorus electricus, UniProt O42275)
Sequence (O42275 whole entry): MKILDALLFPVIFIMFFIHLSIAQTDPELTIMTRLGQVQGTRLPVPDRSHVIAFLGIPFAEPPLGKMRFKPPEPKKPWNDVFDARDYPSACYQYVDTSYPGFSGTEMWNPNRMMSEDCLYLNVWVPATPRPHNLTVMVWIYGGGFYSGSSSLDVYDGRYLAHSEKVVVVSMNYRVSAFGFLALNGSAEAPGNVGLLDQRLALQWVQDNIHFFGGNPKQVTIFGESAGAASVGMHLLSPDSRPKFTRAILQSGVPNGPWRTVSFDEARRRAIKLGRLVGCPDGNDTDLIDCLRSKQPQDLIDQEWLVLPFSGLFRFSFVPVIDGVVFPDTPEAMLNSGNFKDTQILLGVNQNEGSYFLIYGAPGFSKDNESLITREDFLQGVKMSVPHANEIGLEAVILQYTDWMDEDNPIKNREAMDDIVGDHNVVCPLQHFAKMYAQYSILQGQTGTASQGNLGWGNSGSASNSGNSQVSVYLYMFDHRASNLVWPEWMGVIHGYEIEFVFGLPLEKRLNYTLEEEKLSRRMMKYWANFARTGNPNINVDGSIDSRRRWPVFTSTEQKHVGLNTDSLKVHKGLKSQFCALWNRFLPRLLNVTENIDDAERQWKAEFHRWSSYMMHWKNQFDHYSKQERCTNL
Description: Inhibition of electric eel acetylcholinesterase using acetylthiocholine iodide as substrate after 10 mins by Ellman's spectrophotometric method

SMILES	IC50
CCCCC[C@H](O)/C=C/CCCCCCCc1cccc(O)c1C(=O)O	3.18 µM
CCCCC[C@H](O)/C=C/CCCCCCCc1cccc(OC)c1C(=O)OC	342 µM
CCCC/C=C\CCCCCCCCCc1cccc(O)c1	17.2 µM
CCCC/C=C\CCCCCCCCCc1cccc(OC)c1	178 µM
CCCC/C=C\CCCCCCCCCc1cccc(OC)c1C(=O)OC	358 µM
CCCCCC/C=C\CCCCCCCCCc1cccc(OC)c1C(=O)OC	303 µM
CCCCCC/C=C\CCCCCCCCCc1cccc(O)c1	13.1 µM
